Results from the supplement of paper PMC10307832.

Legend:
Assay in all cases: relative viability (nuclei count vs DMSO), 5 days (fraction); higher = more cells survive
Doramapimod + AZD7762 = compound: Cc1ccc(-n2nc(C(C)(C)C)cc2NC(=O)Nc2ccc(OCCN3CCOCC3)c3ccccc23)cc1 [Doramapimod] + NC(=O)Nc1cc(-c2cccc(F)c2)sc1C(=O)N[C@H]1CCCNC1 [AZD7762] (partner 0.2 µM)
In short: (§1)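 One day after seeding in 1536-well plates, lung cancer cell lines were dosed by pin tool. Dosing was either single-drug or a fixed anchor-drug dose plus five library-drug doses (not always all listed) in √10 steps. After 5 days, nuclei were stained in one fix-and-stain step and counted on 4× images, and relative viability is the nuclei count of treated wells over that of vehicle wells, given as the median of duplicate plates.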

IPA-3 + Luminespib = compound: C1=CC=C2C(=C1)C=CC(=C2SSC3=C(C=CC4=CC=CC=C43)O)O [IPA-3] + CCNC(=O)c1noc(-c2cc(C(C)C)c(O)cc2O)c1-c1ccc(CN2CCOCC2)cc1 [Luminespib] (partner 0.01 µM)
In short: as §1

Doramapimod + Phenformin = compound: Cc1ccc(-n2nc(C(C)(C)C)cc2NC(=O)Nc2ccc(OCCN3CCOCC3)c3ccccc23)cc1 [Doramapimod] + N=C(N)NC(=N)NCCc1ccccc1 [Phenformin] (partner 250 µM)
In short: as §1

Doramapimod + Tozasertib = compound: Cc1ccc(-n2nc(C(C)(C)C)cc2NC(=O)Nc2ccc(OCCN3CCOCC3)c3ccccc23)cc1 [Doramapimod] + Cc1cc(Nc2cc(N3CCN(C)CC3)nc(Sc3ccc(NC(=O)C4CC4)cc3)n2)n[nH]1 [Tozasertib] (partner 0.1 µM)
In short: as §1

Row | Cell Line | relative viability (Doramapimod + AZD7762; first compound 0.02 µM) | relative viability (Doramapimod + AZD7762; first compound 0.06325 µM) | relative viability (Doramapimod + AZD7762; first compound 0.2 µM) | relative viability (Doramapimod + AZD7762; first compound 0.6325 µM) | relative viability (Doramapimod + AZD7762; first compound 2 µM) | relative viability (IPA-3 + Luminespib; first compound 0.2 µM) | relative viability (IPA-3 + Luminespib; first compound 0.6325 µM) | relative viability (IPA-3 + Luminespib; first compound 2 µM) | relative viability (IPA-3 + Luminespib; first compound 6.325 µM) | relative viability (IPA-3 + Luminespib; first compound 20 µM) | relative viability (Doramapimod + Phenformin; first compound 0.02 µM) | relative viability (Doramapimod + Phenformin; first compound 0.06325 µM) | relative viability (Doramapimod + Phenformin; first compound 0.2 µM) | relative viability (Doramapimod + Phenformin; first compound 0.6325 µM) | relative viability (Doramapimod + Phenformin; first compound 2 µM) | relative viability (Doramapimod + Tozasertib; first compound 0.02 µM) | relative viability (Doramapimod + Tozasertib; first compound 0.06325 µM) | relative viability (Doramapimod + Tozasertib; first compound 0.2 µM) | relative viability (Doramapimod + Tozasertib; first compound 0.6325 µM) | relative viability (Doramapimod + Tozasertib; first compound 2 µM)
1 | NCI-H1651 | 0.441 | 0.478 | 0.435 | 0.441 | 0.356 | 1.04 | 0.768 | 0.853 | 0.959 | 1.02 | 0.323 | 0.317 | 0.348 | 0.415 | 0.45 | 0.726 | 0.703 | 0.75 | 0.719 | 0.608
2 | NCI-H1666 | 0.9 | 0.943 | 1.01 | 0.975 | 0.851 | 1.06 | 0.972 | 1.04 | 1.16 | 1.34 | 0.601 | 0.555 | 0.61 | 0.581 | 0.554 | 0.642 | 0.687 | 0.641 | 0.624 | 0.597
3 | NCI-H1734 | 0.418 | 0.608 | 0.498 | 0.75 | 0.434 | 0.191 | 0.224 | 0.185 | 0.216 | 0.194 | 0.332 | 0.344 | 0.344 | 0.355 | 0.289 | 0.273 | 0.267 | 0.229 | 0.284 | 0.235
4 | NCI-H1755 | 0.428 | 0.5 | 0.379 | 0.477 | 0.412 | 0.447 | 0.421 | 0.416 | 0.479 | 0.597 | 0.577 | 0.596 | 0.6 | 0.541 | 0.559 | 0.581 | 0.58 | 0.597 | 0.611 | 0.469
5 | NCI-H1793 | 0.381 | 0.326 | 0.523 | 0.321 | 0.243 | 0.192 | 0.381 | 0.14 | 0.462 | 0.16 | 0.365 | 0.346 | 0.346 | 0.381 | 0.256 | 0.27 | 0.319 | 0.319 | 0.352 | 0.26
6 | NCI-H1915 | 0.694 | 0.734 | 0.771 | 0.82 | 0.664 | 0.968 | 0.534 | 0.775 | 0.713 | 0.926 | 0.362 | 0.357 | 0.375 | 0.348 | 0.298 | 0.438 | 0.464 | 0.489 | 0.459 | 0.384
7 | NCI-H1944 | 0.468 | 0.62 | 0.341 | 0.647 | 0.312 | 0.914 | 0.651 | 0.891 | 0.827 | 0.937 | 0.181 | 0.201 | 0.196 | 0.227 | 0.166 | 0.234 | 0.229 | 0.235 | 0.256 | 0.235
8 | NCI-H1975 | 0.863 | 0.874 | 0.871 | 0.665 | 0.787 | 0.236 | 0.189 | 0.213 | 0.19 | 0.365 | 0.41 | 0.382 | 0.411 | 0.415 | 0.397 | 0.802 | 0.729 | 0.937 | 0.817 | 0.639
9 | NCI-H1993 | 0.751 | 0.675 | 0.608 | 0.781 | 0.557 | 1.05 | 1.32 | 0.852 | 0.478 | 0.844 | 0.512 | 0.484 | 0.543 | 0.542 | 0.548 | 0.688 | 0.564 | 0.622 | 0.598 | 0.565
10 | NCI-H2085 | 1.07 | 0.978 | 1.01 | 1.08 | 1.02 | 0.475 | 0.411 | 0.502 | 0.432 | 0.5 | 0.758 | 0.623 | 0.592 | 0.705 | 0.661 | 0.882 | 0.913 | 0.852 | 0.84 | 0.796
11 | NCI-H2087 | 1.47 | 1.52 | 1.15 | 1.42 | 1.39 | 0.169 | 0.14 | 0.183 | 0.197 | 0.167 | 0.403 | 0.459 | 0.411 | 0.415 | 0.412 | 0.32 | 0.308 | 0.253 | 0.223 | 0.233
12 | NCI-H2126 | 0.865 | 1.02 | 0.942 | 1.02 | 1.04 | 0.998 | 0.819 | 0.921 | 0.902 | 1.1 | 0.527 | 0.526 | 0.505 | 0.496 | 0.489 | 0.843 | 0.835 | 0.812 | 0.926 | 0.777
13 | NCI-H2170 | 0.828 | 0.948 | 0.889 | 1.07 | 0.851 | 0.691 | 0.574 | 0.772 | 0.748 | 0.683 | 0.418 | 0.403 | 0.474 | 0.368 | 0.426 | 0.717 | 0.611 | 0.824 | 0.636 | 0.6
14 | NCI-H2342 | 0.416 | 0.513 | 0.49 | 0.486 | 0.485 | 0.701 | 0.677 | 0.747 | 0.802 | 0.765 | 0.617 | 0.594 | 0.593 | 0.704 | 0.497 | 0.494 | 0.508 | 0.554 | 0.584 | 0.621
15 | NCI-H2347 | 0.733 | 0.831 | 0.711 | 0.757 | 0.781 | 0.525 | 0.0323 | 0.357 | 0.269 | 0.45 | 0.429 | – | 0.429 | 0.386 | 0.398 | 0.552 | – | 0.565 | 0.587 | 0.555
16 | NCI-H2405 | 0.821 | 0.746 | 0.758 | 0.895 | 0.686 | 0.722 | 0.599 | 0.688 | 0.666 | 0.762 | 0.402 | 0.374 | 0.335 | 0.423 | 0.316 | 0.774 | 0.703 | 0.675 | 0.869 | 0.635
